Consider 5 compounds from patent US20250171490A1, “DHEA-DERIVED STEROIDS” (DEBRECENI EGYETEM, priority 2022, published 2025).

Several values for one entry are separate records, joined by “and”; a condition that tells them apart may be missing. Identical values can stand only once. Entries after “also recorded” stand apart in the source; their conditions may differ.

Holding throughout (assay type): in vivo
Data set [1] has as its system ApoE^−/− mice. Kind of data set: Survival of ApoE−/− mice during treatment. The conditions noted are these: atherogenic diet; for survival / mortality of mice / mouse death before the end of the experiment: 8 weeks treatment. An excerpt: (§1) All the animal experiments were approved by the guidelines from Directive 2010/63/EU of the European Parliament on the protection of animals used for scientific purposes. Animal experiments performed in this study were approved by the Scientific and Research Ethics Committee of the Scientific Council of Health of the Hungarian Government under the registration number of DE MÁB/157-5/2010 and are reported in accordance with the ARRIVE guidelines. C57BL/6 ApoE^−/− mice (The Jackson Laboratory; B6.129P2 Apoetm1Unc/J; RRID: IMSR_JAX: 002052) were maintained at the University of Debrecen under specific pathogen-free conditions in accordance with guidelines from Institutional Ethical Committee. To induce atherosclerotic plaque formation, standard chow diet was changed to atherogenic diet (15% fat, 1.25% cholesterol, ssniff Spezialdiäten GmbH, Soest, Germany) at the age of 8 weeks. Mice were randomly divided into two groups and parallelly with the atherogenic diet, mice received tap-water or DHEA-derived steroid (100 μg steroid/mouse/day) in tap-water. The DHEA-derived steroid was replaced every day. Aortas were harvested after 8 weeks of treatment. All mice were euthanized by a predictable and controllable administering of slow-fill compressed CO2 asphyxiation. Atherogenic food composition (high-fat diet): Crude Nutrients (%): Crude Protein 19%; crude fat 15.2%; crude fiber 3.4%; crude ash 6.3%; starch 25.6%; sugar 11.2%; Additives (per kg): vitamin A 15,000 IU; vitamin D3 1,000 IU; vitamin E 110 mg; vitamin K3 5 mg; vitamin C 0 mg; copper 13 mg.

Data set [2] has as its system ApoE^−/− mice. Kind of data set: Atherosclerotic plaque formation in ApoE−/− mice on atherogenic diet, en face Oil Red O staining of whole aorta (preventive treatment). The conditions noted are these: 100 μg steroid/mouse/day in tap-water, 8 weeks, vs tap water control.
Source text: as §1
(§2) Aortas were dissected from the aortic arch to the iliac bifurcation. After that, the fatty tissue was carefully removed under a stereomicroscope (M125; Leica Biosystems Nussloch GmbH). […] 0.07 g ORO powder was dissolved in 25 mL methanol and mixed for 10 min on a magnetic stirrer. Finally, 10 mL 1 mol/L NaOH was added to the ORO solution and filtered it. Images were taken with the camera (Nikon D3200; Nikon Corp., Japan) and whole aorta plaque area was analyzed with ImageJ 1.49 software.

Data set [3] has as its system ApoE^−/− mice. The data set can be described thus: Aortic valve calcification in ApoE−/− mice on high-fat diet, von Kossa staining (preventive treatment). The conditions noted are these: 8 weeks; for calcification / mineralization of aortic valve (von Kossa): treatment in drinking water, vs tap water.
Source text: as §1
(§3) Immunohistochemistry from the aortic root was performed on formalin-fixed, paraffin-embedded tissue sections. 4 μm slides were then deparaffinated using xylol and ethanol. The serial sections were stained with Gill Hematoxylin solution (Merck) followed by eosin counterstaining or with von Kossa. For digital documentation, the stained specimens were scanned with a Mirax Midi scanner (3D Histech, Budapest, Hungary). Macroscopic pictures of the arteries were taken with Nikon D3200 camera (Nikon Corp.; Minato, Tokyo, Japan).

Data set [4] has as its system ApoE^−/− mice. The data set can be described thus: Reversal of already formed atherosclerotic lesion in ApoE−/− mice, Oil Red O (therapeutic treatment). The conditions noted are these: for already formed atherosclerotic lesion (plaque size, Oil Red O): atherogenic diet 4 or 6 weeks, then chop diet plus S2 in water for 4 or 8 weeks, vs tap water, sodium salt.
Source text: (§4) In the further part of the present work, it was examined whether the compounds of the invention have positive therapeutic effect, too. In the above-mentioned animal model, the present inventors developed during eight weeks real atherosclerosis, and for an additional eight weeks animals were given S2 compound (100 micrograms per day per animal). Control mice got pure drinking water. At the end of experiment the size and number of sclerotic plaques, the calcification of heart valves and the amount of hydrogen sulfide was measured. […] This means the compounds of the invention have not only preventive, but also therapeutic effect.
as §2
(§5) From a pharmacological point of view to the best of inventors' knowledge, there is no medicine in the market to reverse atherosclerosis and calcification of vessels. Current drugs only slow down the progression of atherosclerosis. Therefore, the present inventors examined the possibility of S2 steroid treatment to reverse the already formed atherosclerotic lesion and calcification. In this experiment the present inventors kept the mice on atherogenic diet for 4 or 6 weeks for development of atherosclerotic lesion and calcification. After that the present inventors changed the atherogenic diet to chop diet and they added S2 steroid to the mice's water for 4 weeks and 8 weeks. Control group got tap water only.

A further data set concerns H2S. The data set can be described thus: Sulfide (H2S) level of mice plasma, zinc precipitation assay.
Source text: as §1
Sulfide levels were measured with zinc precipitation method based upon developed by Gilboa-Garber [Gilboa-Garber N. 1971] and modified by A. D. Ang et al. [Ang A D, et al. 2012]. The human carotid artery was homogenized under liquid nitrogen in 7.4 pH PBS and sonicated it. […] After 10 min the absorbance of the generated methylene blue (MB) was measured with a spectrophotometer at 667 nm. Since during the reaction 1 mol/L MB formed from 1 mol/L sulfide, the concentration was determined by the MB's extinction coefficient (30 200 M 1 cm 1). […]

In data set [5] the test system is ApoE^−/− mice. Kind of data set: Reversal of already formed aortic valve calcification in ApoE−/− mice, von Kossa (therapeutic treatment). The following applies: for already formed aortic valve extracellular matrix mineralization (von Kossa): high-fat diet 6 weeks, then chop diet plus S2 in tap water for 4 weeks, vs tap water, sodium salt.
Source text: as §4, §3, §5

[6] abbreviates: listed as DHEA-derived S2 steroid.
Setting [7] is: atherosclerosis developed during eight weeks, then 100 micrograms per day per animal for additional eight weeks, vs drinking water.
[8] abbreviates: listed as DHEA-derived steroid, sodium salt.

Regarding `CCCCCC(=O)OC1CC[C@H]2[C@@H]3CC=C4CC(OS(=O)(=O)[O-])CC[C@]4(C)[C@H]3CC[C@]12C.[Na+]` (some centres unmarked) [C6, 17-hexanoyloxy-5-androstene-3-sulfate sodium salt], in the data set with ApoE^−/− mice [1], the “survival / mortality of mice” value is recorded as “survived”. In addition, the “atherosclerotic plaque formation / area of atherosclerotic lesion (Oil Red O, whole aorta)” value (shortened to “atherosclerotic plaque formation / area”) in the data set on ApoE^−/− mice [2] (sodium salt) was “fail to inhibit atherosclerosis; also recorded: not Able to Abrogate Atherosclerotic Plaque Formation”.

As to `CCCCCCCCCCCCCCCC(=O)OC1CC[C@H]2[C@@H]3CC=C4CC(OS(=O)(=O)[O-])CC[C@]4(C)[C@H]3CC[C@]12C.[Na+]` (some centres unmarked) [C16, 17-palmitoyloxy-5-androstene-3-sulfate sodium salt], the “survival / mortality of mice” value in the data set with ApoE^−/− mice [1] is “survived”. In the data set on ApoE^−/− mice [2] (sodium salt), the “atherosclerotic plaque formation / area” value is recorded as “fail to inhibit atherosclerosis; also recorded: not Able to Abrogate Atherosclerotic Plaque Formation”.

As for `C[C@]12CC[C@H](O)CC1=CC[C@@H]1[C@@H]2CC[C@]2(C)C(=O)CC[C@@H]12` [DHEA, Dehydroepiandrosterone], in the data set on ApoE^−/− mice [1], the “day of the treatment regime on which the first treated animal died” value was determined as 50 days; the “mouse death before the end of the experiment” value is 45% and 45.5%; the “survival / mortality of mice” value is listed as “elevated mortality rate of the animals”. In the data set with ApoE^−/− mice [3], the “calcification / mineralization of aortic valve (von Kossa)” value (shortened to “calcification / mineralization”) is listed as “cannot decrease the mineralization of extracellular matrix of aortic valve; also recorded: Failed to Prevent Calcification of Aortic Valve”. The “atherosclerotic plaque formation / area” value in the data set on ApoE^−/− mice [2] is “fail to inhibit atherosclerosis; also recorded: did not diminish the development of atherosclerosis; also recorded: not Able to Abrogate Atherosclerotic Plaque Formation”.

As for `CCCCCCCCCCCC(=O)OC1CC[C@H]2[C@@H]3CC=C4CC(OS(=O)(=O)[O-])CC[C@]4(C)[C@H]3CC[C@]12C.[Na+]` (some centres unmarked) [S2, 17-lauroyloxy-5-androstene-3-sulphate sodium salt], the “already formed atherosclerotic lesion (plaque size, Oil Red O)” value with ApoE^−/− mice [4] (setting [6]) is recorded as “reverses atherosclerosis”; in the data set with ApoE^−/− mice [4] it was “significantly lesser atherosclerotic lesion”. In the data set on ApoE^−/− mice [4] (setting [7]), the “size and number of sclerotic plaques” value is “significantly less”. The “survival / mortality of mice” value in the data set on ApoE^−/− mice [1] is given as “survived”. Besides, in the data set with ApoE^−/− mice [3] (steroid in drinking water), the “lower mineralized area of aortic valves calcification nodules compared to tap-water mice” value was found to be 91.2%. The “calcification / mineralization” value in the data set with ApoE^−/− mice [3] (setting [8]) is reported as “decreases the expansion of the extracellular matrix; also recorded: significantly inhibited the development of calcific nodules in aortic valves”. Also, the “H2S content of mice plasma” value in the data set on H2S (ApoE−/− mice, steroid treated vs tap-water) was “elevates H2S content of the mice plasma”. Besides, the “plasma H2S concentration compared to control mice plasma” value with H2S (ApoE−/− mice, steroid treated vs tap-water, normalized to protein content) is listed as “approximately 2.4 times”. Moreover, the “concentration of hydrogen sulfide” value in the data set with H2S (setting [7]) is “significantly higher”. The “calcification of heart valves” value in the data set on ApoE^−/− mice [5] (setting [7]) is listed as “significantly less”. For the same compound, the “already formed aortic valve extracellular matrix mineralization (von Kossa)” value with ApoE^−/− mice [5] (setting [6]) was “reverses atherosclerosis and aortic valve calcification”; in the data set on ApoE^−/− mice [5], “significant lesser extracellular matrix mineralization”. Further, the “atherosclerotic plaque formation / area” value with ApoE^−/− mice [2] (setting [8]) is “inhibits atherosclerosis; also recorded: significantly lesser area of atherosclerotic lesion”; in the data set with ApoE^−/− mice [2] (sodium salt) it was “highly efficient both in the prevention and reversal of atherosclerosis”.

Turning to Dehydroepiandrosterone sulfate [DHEA-S], in the data set with ApoE^−/− mice [1], the “day of the treatment regime on which the first treated animal died” value was found to be 55 days; the “mouse death before the end of the experiment” value was 22% and 28.6%; the “survival / mortality of mice” value was “elevated mortality rate of the animals”. Further, in the data set with ApoE^−/− mice [3], the “calcification / mineralization” value is given as “cannot decrease the mineralization of extracellular matrix of aortic valve; also recorded: Failed to Prevent Calcification of Aortic Valve”. Also, in the data set with ApoE^−/− mice [2], the “atherosclerotic plaque formation / area” value was “fail to inhibit atherosclerosis; also recorded: not Able to Abrogate Atherosclerotic Plaque Formation”. In addition, the “atherosclerotic plaque formation / area” value in the data set with ApoE^−/− mice [2] (listed as DHEAS) is given as “did not diminish the development of atherosclerosis”.
